From patent publication US8114641B2, “Methylbutanol as an advanced biofuel” (Synthetic Genomics, Inc., priority 2007, dated 2012)
Like-named read-outs stand apart in the source and are kept apart here.

Assays:
[1] = Physical properties of alcohol fuels and gasoline; assay type: physicochemical
[2] = for Energy Content / Pump Octane (R + M)/2: 10% blend in gasoline; for Pump Octane (R + M)/2: RBOB with Pump Octane 80.85 and RVP 7.37; for Reid Vapor Pressure: measured with 9.5% volumetric blend in RBOB
[3] = based on literature review; cited from earlier work
[4] = Fuel properties of the neat fuel; conditions: for Pump Octane (R + M)/2: extrapolated from tests on blended fuels (blending octanes)
[5] = Ether fuel testing (ULSD and hexadecane blends, neat ether); assay type: physicochemical
[6] = Enzyme assays of overexpressed ADH6 and ADH7 with crude extracts; assay type: biochemical; conditions: NADPH dependent
Description: Yeast ADH6 and ADH7 have been reported as broad substrate specificity alcohol dehydrogenases. These enzymes were therefore overexpressed in S. cerevisiae under the control of TEF promoter and enzyme assays were carried out with crude extracts. Both ADH6 and ADH7 were active on 2-methylbutanal and were NADPH dependent reductases.

[7] = Aldehyde reductase assay of purified ADH6 on 2-methyl butyraldehyde; assay type: biochemical
Description: Enzyme assays for aldehyde reductase activity were carried out in 100 mM citrate phosphate buffer pH6.2, 0.5 mM NADPH and 0.05 to 20 mM substrate (acetaldehyde or 2-methylbutanal). The reaction was monitored for 5 minutes at 340 nm for oxidation of NADPH to NADP+.

[8] = Endpoint assay for acetolactate synthase activity with pyruvate as substrate; assay type: biochemical; conditions: colorimetric detection at 546 nm, expressed in yeast
Description: FIG. 23 (a-d.) Endpoint assays for acetolactate synthase activity were carried out using pyruvate as substrate. The resulting acetolactate was converted to […] under acidic conditions. Acetone was reacted with α-naphtha for colorimetric detection at 546 nm. […] The reaction was only moderately subject to feedback inhibition by leucine, isoleucine and valine (b, c and d) which could be due to longer reaction times.

## CCC(C)CO (stereo not shown) [2-MBO, 2-methyl-1-butanol]
[1]
  Boiling Point, max: 130 °C
  Flash Point, min: 43 °C
  Freezing Point, max: −70 °C
[2]
  Energy Content: 113,963 BTU/gal
  Pump Octane (R + M)/2: 83.0
  Reid Vapor Pressure: ~7^B psi
[3]
  Fuel Solubility in Water: 3 wt %
  Water Solubility in Fuel: 9 wt %
[4]
  Energy Content: 113,627 BTU/gal
  Reid Vapor Pressure: 2.3 psi
  Pump Octane (R + M)/2: 102.0

## CCC(C)COCC(C)CC (stereo not shown) [2MBO-ether, 2-methyl-1-(2-methylbutoxy)butane]
[5]
  Flash: 118 ° F.
  Solubility in Water: <500 ppm

## CC(C)CCO [3-MBO, 3-methyl-1-butanol]
[1]
  Boiling Point, max: 130 °C
  Flash Point, min: 43 °C
  Freezing Point, max: −117 °C
[2]
  Energy Content: 113,824 BTU/gal
  Pump Octane (R + M)/2: 82.0
  Reid Vapor Pressure: ~7^B psi
[3]
  Fuel Solubility in Water: 2 wt %
  Water Solubility in Fuel: 9 wt %
[4]
  Energy Content: 112,240 BTU/gal
  Reid Vapor Pressure: 2.3 psi
  Pump Octane (R + M)/2: 101.0

## CCCCCCCCCCCCCCCC [Hexadecane, reference compound]
[5]
  wear scar diameter: 534 µm

B1: ADH7: Saccharomyces cerevisiae NADPH-dependent alcohol dehydrogenase ADH7, SEQ ID NO: 72 (protein, listed as Saccharomyces cerevisiae)
chain: MLYPEKFQGIGISNAKDWKHPKLVSFDPKPFGDHDVDVEIEACGICGSDFHIAVGNWGPVPENQILGHEIIGRVVKVGSKCHTGVKIGDRVGVGAQALACFECERCKSDNEQYCTNDHVLTMWTPYKDGYISQGGFASHVRLHEHFAIQIPENIPSPLAAPLLCGGITVFSPLLRNGCGPGKRVGIVGIGGIGHMGILLAKAMGAEVYAFSRGHSKREDSMKLGADHYIAMLEDKGWTEQYSNALDLLVVCSSSLSKVNFDSIVKIMKIGGSIVSIAAPEVNEKLVLKPLGLMGVSISSSAIGSRKEIEQLLKLVSEKNVKIWVEKLPISEEGVSHAFTRMESGDVKYRFTLVDYDKKFHK
[6]
  activity on 2-methylbutanal: active

B2: ADH6: Saccharomyces cerevisiae alcohol dehydrogenase ADH6, SEQ ID NO: 66 (protein, listed as Saccharomyces cerevisiae)
chain: MSYPEKFEGIAIQSHEDWKNPKKTKYDPKPFYDHDIDIKIEACGVCGSDIHCAAGHWGNMKMPLVVGHEIVGKVVKLGPKSNSGLKVGQRVGVGAQVFSCLECDRCKNDNEPYCTKFVTTYSQPYEDGYVSQGGYANYVRVHEHFVVPIPENIPSHLAAPLLCGGLTVYSPLVRNGCGPGKKVGIVGLGGIGSMGTLISKAMGAETYVISRSSRKREDAMKMGADHYIATLEEGDWGEKYFDTFDLIVVCASSLTDIDFNIMPKAMKVGGRIVSISIPEQHEMLSLKPYGLKAVSISYSALGSIKELNQLLKLVSEKDIKIWVETLPVGEAGVHEAFERMEKGDVRYRFTLVGYDKEFSD
[7]; purified His-tagged enzyme, pH6.2, 0.5 mM NADPH
  Km: 360 µM
[7]; purified enzyme
  Vmax (cofactor oxidation rate) for 2-methyl butyraldehyde, fold higher than acetaldehyde: 1.3 fold
[6]
  activity on 2-methylbutanal: active

B3: E. coli ilvB: Acetolactate synthase I, large subunit [Escherichia coli], SEQ ID NO: 37 (protein, listed as Escherichia coli)
chain: MASSGTTSTRKRFTGAEFIVHFLEQQGIKIVTGIPGGSILPVYDALSQSTQIRHILARHEQGAGFIAQGMARTDGKPAVCMACSGPGATNLVTAIADARLDSIPLICITGQVPASMIGTDAFQEVDTYGISIPITKHNYLVRHIEELPQVMSDAFRIAQSGRPGPVWIDIPKDVQTAVFEIETQPAMAEKAAAPAFSEESIRDAAAMINAAKRPVLYLGGGVINAPARVRELAEKAQLPTTMTLMALGMLPKAHPLSLGMLGMHGVRSTNYILQEADLLIVLGARFDDRAIGKTEQFCPNAKIIHVDIDRAELGKIKQPHVAIQADVDDVLAQLIPLVEAQPRAEWHQLVADLQREFPCPIPKACDPLSHYGLINAVAACVDDNAIITTDVGQHQMWTAQAYPLNRPRQWLTSGGLGTMGFGLPAAIGAALANPDRKVLCFSGDGSLMMNIQEMATASENQLDVKIILMNNEALGLVHQQQSLFYEQGVFAATYPGKINFMQIAAGFGLETCDLNNEADPQASLQEIINRPGPALIHVRIDAEEKVYPMVPPGAANTEMVGE
[8]
  acetolactate synthase activity on pyruvate: highest activity

B4: E. coli ilvG: Acetolactate synthase II, large subunit [Escherichia coli], SEQ ID NO: 39 (protein, listed as Escherichia coli)
chain: MNGAQWVVHALRAQGVNTVFGYPGGAIMPVYDALYDGGVEHLLCRHEQGAAMAAIGYARATGKTGVCIATSGPGATNLITGLADALLDSIPVVAITGQVSAPFIGTDAFQEVDILGLSLACTKHSFLVQSLEELPRIMAEAFDVASSGRPGPVLVDIPKDIQLASGDLEPWFTTVENEVTFPHAEVEQARQMLAKAQKPMLYVGGGVGMAQAVSALREFLAATKMPATCTLKGLGAVEADYPYYLGMLGMHGTKAANFAVQECDLLIAVGARFDDRVTGKLNTFAPHASVIHMDIDPAEMNKLRQAHVALQGDLNALLPALQQPLNINDWQQYCAQLRDEHTWRYDHPGDAIYAPLLLKQLSDRKPADCVVTTDVGQHQMWAAQHIAHTRPENFITSSGLGTMGFGLPAAVGAQVARPNDTVVCISGDGSFMMNVQELGTVKRKQLPLKIVLLDNQRLGMVRQWQQLFFQERYSETTLTDNPDFLMLASAFGIPGQHITRKDQVEAALDTMLNSDGPYLLHVSIDELENVWPLVPPGASNSEMLEKLS
[8]
  acetolactate synthase activity on pyruvate: minimum activity
